From patent US20110098255A1, “COMBINATION OF A PARP INHIBITOR AND AN AKT KINASE ACTIVATING COMPOUND” (priority 2008, published 2011)

How the values were obtained:
[1] = system: MBP induced formation of EAE in PJSJL mice; conditions: cited from earlier work
[2] = system: LPS induced septic shock in normal BALB/c mice; conditions: cited from earlier work
[3] = system: cuprisone induced changes in the central nervous system of C57BL/6 mice (hydrocephalus); experiment: Cuprizone induced hydrocephalus determined with MRI (chamber/brain volume ratio); assay type: in vivo; conditions: cuprizone-treated mice, after 5 weeks of treatment, i.p.
Method: (§1) During the experiment C57BL/6 mice were kept in a standard environment, they were given tap water and ground mice feed ad libitum. The mice were taken care of according to ethical requirements relating to treatment of animals.
(§2) According to a previously described method [Journal of Neuroimmunology 92 (1998): 38-49], 7-8 week old C57BL/6 male mice were treated for 6 weeks per os with cuprizone (Sigma, Steinheim, Germany). The mice were divided into 5 groups with 8 mice in each group.
(§3) Oxidation of cuprizone was prevented by giving fresh feed to the mice every day. PARP inhibitors and/or Akt kinase activating agents were placed in physiological saline solution, filtered to sterility, and administered intraperitoneally in the proper dosage. […] Control animals were given i.p. an amount of sterile physiological solution corresponding to their bodymass.
(§4) It is known from the literature (NMR Biomed. 2005 Oct.; 18(6):395-403) that T1 and T2 MRI image intensity correlates with the degradation and regeneration of the myelin sheath in this model. Oedema and hydrocephalus registers as hyperintensity on the T2 image. For quantification of hydrocephalus MRI is more suitable than histology because during fixation and histological processing there is significant shrinkage and volume degradation (Exp. Neurology 118 (1992): 1-6). MRI micro image technique makes it possible to study the above changes in vivo for weeks.
(§5) After three weeks, the mice were placed into the NMR instrument in narcosis every week [5 mg/kg bodymass diazepam (Seduxen) and 90 mg/kg bodymass ketamine (Calypsol, Richter Gedeon Zrt., Budapest) intraperitoneally]. T1 and T2 images were acquired with Varian ^uNITYIINOVA NMR spectrometer from the bulbus olfactorius to the beginning of the spinal cord in transverse sections of 1 mm thickness. Signal intensity of a glass tube with 1 mm internal diameter, which was filled with 9:1 water-glycerin mixture, was used as outer control. The development and size of demyelinization was determined by comparing average signal intensity detected at the area of the corpus callosum with the average intensity of the outer control. Average signal intensity of the corpus callosum (CC) was determined by an expert who was blind to the experiment from the section 1 mm posterior to the bregma by manually marking the region of interest (ROI), i.e. the corpus callosum (CC). Intensity of ROI was normalized to the intensity of the control tube.
The development and the degree of hydrocephalus were quantified by calculating the chamber/brain volume ratio. The area of the chambers was outlined manually in each section, and the whole volume was calculated as the sum of the areas multiplied with the thickness of the sections (1 mm). The same method was used for the determination of the […].

[4] = system: cuprisone induced changes in the central nervous system of C57BL/6 mice (corpus callosum demyelinization); experiment: Cuprizone induced demyelinization determined with MRI (CC/control tube intensity); assay type: in vivo; conditions: cuprizone-treated mice, after 5 weeks of treatment, i.p.
Method: as §1, §2, §3, §4, §5

[5] = Example 1, doxycycline 1 mg/kg, estriol 0,4 mg/kg bodymass
[6] = Example 2, doxycycline 1 mg/kg, trans-resveratrol 0,4 mg/kg bodymass
[7] = Example 3, 4-HQ 20 mg/kg, trans-resveratrol 0,4 mg/kg bodymass
[8] = Example 4, Carb 2 mg/kg, trans-resveratrol 0.4 mg/kg bodymass

| Structure (SMILES) | MBP induced formation of EAE [1] | prevention of LPS induced septic shock [2] | Chamber/brain vol. ratio (hydrocephalus) [3, 5] | Chamber/brain vol. ratio (hydrocephalus) [3, 6] | CC/control tube (demyelinization) [4, 5] | CC/control tube (demyelinization) [4, 6] | Chamber/brain vol. ratio (hydrocephalus) [3, 7] | Chamber/brain vol. ratio (hydrocephalus) [3, 8] | CC/control tube (demyelinization) [4, 7] | CC/control tube (demyelinization) [4, 8] |
| --- | --- | --- | --- | --- | --- | --- | --- | --- | --- | --- |
| CN(C)CC(=O)Nc1ccc2[nH]c(=O)c3ccccc3c2c1.Cl [PJ-34, N-(6-oxo-5 ,6-dihydrophenanthridin-2-yl)-N,N-dimethylacetamide.HCl] | effectively decreased | successful in preventing LPS induced septic shock | – | – | – | – | – | – | – | – |
| C[C@H]1c2cccc(O)c2C(=O)C2=C(O)[C@]3(O)C(=O)C(C(N)=O)=C(O)[C@@H](N(C)C)[C@@H]3[C@@H](O)[C@@H]21 [doxycycline] | – | – | 0.128 ± 0.012 | 0.117 ± 0.02 | 1.1 ± 0.18 | 1.2 ± 0.17 | – | – | – | – |
| C[C@]12CC[C@@H]3c4ccc(O)cc4CC[C@H]3[C@@H]1C[C@@H](O)[C@@H]2O [estriol] | – | – | 0.134 ± 0.02 | – | 1.2 ± 0.13 | – | – | – | – | – |
| Oc1ccc(/C=C/c2cc(O)cc(O)c2)cc1 [resveratrol, trans-resveratrol] | – | – | – | 0.138 ± 0.017 | – | 1.3 ± 0.09 | 0.138 ± 0.017 | 0.138 ± 0.017 | 1.3 ± 0.09 | 1.3 ± 0.09 |
